Like-named read-outs stand apart in the source and are kept apart here.
What was measured:
[1] = test system: mouse leukemia L1210 cells; assay: Effectiveness against mouse leukemia L1210 cells (in vitro test), cytotoxicity by trypan blue dye exclusion; format: cell-based; conditions: L1210 cells, 3 days, 37° C., read-out: IC50 (mean dose producing 50%-killing of tumor cells)
Method: Effectiveness against mouse leukemia L1210 cells (in vitro test)
A suspension of cells in culture medium was transferred into wells in a microplate in an amount of 1×10^5 L1210-cells/well. Test sample diluted with a culture medium was added to the suspension in each well, and the mixture was incubated on the medium at 37° C. for 3 days in an atmosphere of air containing 5% carbon dioxide.
Thereafter, the incubated cells were recovered from the microplate and the number of live cells was counted by the dye exclusion test using a 0.5% solution of trypan blue and by using a hemocytometer.

[2] = test system: Ehrlich solid tumor; assay: Test 2: Anti-tumor test against Ehrlich solid tumor; format: in vivo, ddY/SLC mice; conditions: i.p., days 1 through 9, tumor weight day 21; for inhibition in vivo at 100 mg/kg / inhibition in vivo at 50 mg/kg: Mus musculus, Ehrlich, ip, 504 h, read-out: Growth Inhibition Rate
Method: Anti-tumor test against Ehrlich solid tumor
Ehrlich tumor cells, 2×10^6, on Day 7 after intraperitoneal transplantation to ddY/SLC mice, were subcutaneously transplanted in the left abdomen of ddY/SLC mice (5week age, male)--10 to a group. The active component was intraperitoneally administered in a definite dose 24 hours after the transplantation. (administration: once per one day; 1 through 9 days)
Growth inhibition rate (%)=(C-T)/C×100
T: mean tumor weight in the active component-administered group
c: mean tumor weight in the control group

Compound: CN(C)C(=O)C(C)(C)CCCCOc1ccc(OCCCCCn2ccnc2)cc1 [Example 50]
- IC50 ([1]; Mus musculus, 72 h): 1.8 µM

Compound: CCOC(=O)C(C)(C)CCCCOc1ccc(OCCCCCSc2nc3ncccc3[nH]2)cc1 [Example 43, ethyl 6-[p-[5-(1H-imidazo[4,5-b]pyridin-2-ylthio)pentyloxy]phenoxy]-2,2-dimethylhexanoate]
- inhibition in vivo at 100 mg/kg ([2]; 100 mg/kg): 55.5%
- IC50 ([1]; Mus musculus, 72 h): 8 µM

Compound: CCOC(=O)C(C)(C)CCCCOc1ccc(OCCCCCn2cncn2)cc1 [Example 48, ethyl 6-[p-[5-(1,2,4-triazol-1-yl)pentyloxy]phenoxy]-2,2-dimethylhexanoate]
- inhibition in vivo at 100 mg/kg ([2]; 100 mg/kg): 46.3%
- IC50 ([1]; Mus musculus, 72 h): 5.5 µM

Compound: COC(=O)CCCCC(=O)Oc1ccc(OCCCCCn2ccnc2)cc1 [Example 12]
- IC50 ([1]; Mus musculus, 72 h): 8.5 µM

Compound: CC(C)(C)OC(=O)C(C)(C)CCCCOc1ccc(OCCCCCn2ccnc2)cc1 [Example 6]
- inhibition in vivo at 100 mg/kg ([2]; 100 mg/kg): 43.8%
- IC50 ([1]; Mus musculus, 72 h): 6.8 µM

Compound: CCOC(=O)C(C)(C)CCCCOc1ccc(OCCCCCSc2ccncc2)cc1 [Example 19, ethyl 6-[p-[5-(4-pyridylmercapto)pentyloxy]phenoxy]-2,2-dimethylhexanoate]
- inhibition in vivo at 100 mg/kg ([2]; 100 mg/kg): 47.6%
- IC50 ([1]; Mus musculus, 72 h): 5.7 µM

Compound: CCOC(=O)C(C)(C)CCCCOc1ccc(OCCCCCSc2nc3ccccc3[nH]2)cc1 [Example 27]
- IC50 ([1]; Mus musculus, 72 h): 4.2 µM

Compound: CCOC(=O)C(C)(C)CCCCOc1ccc(OCCCCCOCCc2ccccn2)cc1 [Example 18]
- inhibition in vivo at 100 mg/kg ([2]; 100 mg/kg): 34.9%
- IC50 ([1]; Mus musculus, 72 h): 9.5 µM

Compound: CC(C)(CCCCOc1ccc(OCCCCCn2ccnc2)cc1)C(=O)Nc1ccccc1 [Example 53]
- inhibition in vivo at 100 mg/kg ([2]; 100 mg/kg): 49.3%
- IC50 ([1]; Mus musculus, 72 h): 4.3 µM

Compound: CCOC(=O)C(C)(C)CCCCOc1ccc(OCCCCCOc2ccccc2-c2ccccc2)cc1 [Example 40]
- inhibition in vivo at 100 mg/kg ([2]; 100 mg/kg): 46.9%

Compound: CCOC(=O)C(C)(C)CCCCOc1ccc(OCCCCCSc2nnc(N)s2)cc1 [Example 33]
- inhibition in vivo at 100 mg/kg ([2]; 100 mg/kg): 59.5%
- IC50 ([1]; Mus musculus, 72 h): 7.7 µM

Compound: CCOC(=O)C(C)(C)CCCCOc1ccc(OCCCCCSc2ncnc3[nH]cnc23)cc1 [Example 32]
- inhibition in vivo at 100 mg/kg ([2]; 100 mg/kg): 57.5%
- IC50 ([1]; Mus musculus, 72 h): 2.2 µM

Compound: CCOC(=O)C(C)(C)CCCCOc1ccc(OCCCCCSc2nccn2C)cc1 [Example 20]
- inhibition in vivo at 100 mg/kg ([2]; 100 mg/kg): 52.8%
- IC50 ([1]; Mus musculus, 72 h): 8.2 µM

Compound: CC(C)(C#N)CCCCOc1ccc(OCCCCCn2ccnc2)cc1 [Example 55, 6-[p-[5-(1-imidazolyl)pentyloxy]phenoxy]-2,2-dimethylhexane-nitrile]
- inhibition in vivo at 50 mg/kg ([2]; 50 mg/kg): 63.1%
- IC50 ([1]; Mus musculus, 72 h): 3.8 µM

Compound: 6-[3-[6-[5-(1-imidazolyl]pyridadyloxy]]-2,2-dimethylhexanoic acid ethyl ester [Example 60]
- Growth Inhibition Rate ([2]; 50 mg/kg): 40.5%
- IC50 [1]: 3.7 µM

Compound: Cn1nnnc1SCCCCCOc1ccc(OCCCCC(C)(C)C(N)=O)cc1 [Example 34]
- IC50 ([1]; Mus musculus, 72 h): 4 µM

Compound: Cn1ccnc1SCCCCCOc1ccc(OCCCCC(C)(C)C(N)=O)cc1 [Example 30]
- inhibition in vivo at 100 mg/kg ([2]; 100 mg/kg): 60.9%
- IC50 ([1]; Mus musculus, 72 h): 2.3 µM

Compound: CCOC(=O)C(C)(C)CCCCOc1ccc(OCCCCCOCc2ccccn2)cc1 [Example 17]
- inhibition in vivo at 50 mg/kg ([2]; 50 mg/kg): 36.6%
- IC50 ([1]; Mus musculus, 72 h): 13.7 µM

Compound: CCOC(=O)C(C)(C)CCCCOc1ccc(OCCCCCSc2nc3ccccc3s2)cc1 [Example 26]
- inhibition in vivo at 100 mg/kg ([2]; 100 mg/kg): 30%
- IC50 ([1]; Mus musculus, 72 h): 42.7 µM

Compound: CC(C)NC(=O)C(C)(C)CCCCOc1ccc(OCCCCCn2ccnc2)cc1 [Example 2]
- inhibition in vivo at 50 mg/kg ([2]; 50 mg/kg): 52.9%
- IC50 ([1]; Mus musculus, 72 h): 7.5 µM

Compound: CCOC(=O)C(C)(C)CCCCOc1ccc(OCCCCCOc2cccnc2)cc1 [Example 14]
- IC50 ([1]; Mus musculus, 72 h): 4.2 µM

Compound: CCOC(=O)COc1ccc(OCCCCCn2ccnc2)cc1 [Example 10, ethyl p-[5-(1-imidazol-yl)pentyloxy]phenoxyacetate]
- inhibition in vivo at 100 mg/kg ([2]; 100 mg/kg): 23.7%

Compound: CCOC(=O)C(C)(C)CCCCOc1ccc(OCCCCCSC2=NCCS2)cc1 [Example 25]
- IC50 ([1]; Mus musculus, 72 h): 23.5 µM

Compound: CC(C)(CCCCOc1ccc(OCCCCCn2ccnc2)cc1)C(N)=O [Example 1, 6-[p-[5-(1-imidazol-yl)pentyloxy]phenoxy]-2,2-dimethylhexanamide]
- inhibition in vivo at 100 mg/kg ([2]; 100 mg/kg): 68.5%
- IC50 ([1]; Mus musculus, 72 h): 7.2 µM

Compound: CCOC(=O)C(C)(C)CCCCOc1ccc(OCCCCCn2cccc2)cc1 [Example 15]
- inhibition in vivo at 100 mg/kg ([2]; 100 mg/kg): 38.8%
- IC50 ([1]; Mus musculus, 72 h): 28.9 µM

Compound: CCCCCCCCCOc1ccc(OCCCCCn2ccnc2)cc1 [Example 7, [p-[5-(1-imidazolyl)pentyloxy]phenoxy]nonane]
- inhibition in vivo at 100 mg/kg ([2]; 100 mg/kg): 45%
- IC50 ([1]; Mus musculus, 72 h): 11 µM

Compound: CCOC(=O)C(C)(C)CCCCOc1ccc(OCCCCCSc2cccc[n+]2[O-])cc1 [Example 23]
- IC50 ([1]; Mus musculus, 72 h): 6.1 µM

Compound: CCOC(=O)C(C)(C)CCCCOc1ccc(OCCCCCSc2ncccn2)cc1 [Example 24, ethyl 6-[p-[5-(2-pyrimidylthio)pentyloxy]phenoxy]-2,2-dimethylhexanoate]
- inhibition in vivo at 100 mg/kg ([2]; 100 mg/kg): 31.7%
- IC50 ([1]; Mus musculus, 72 h): 20.6 µM

Compound: CCOC(=O)C(C)(C)CCCCOc1ccc(OCCCCCn2cnc3ccccc32)cc1 [Example 36]
- IC50 ([1]; Mus musculus, 72 h): 3.8 µM

Compound: OCCCCCCOc1ccc(OCCCCCn2ccnc2)cc1 [Example 9]
- inhibition in vivo at 100 mg/kg ([2]; 100 mg/kg): 30.7%
- IC50 ([1]; Mus musculus, 72 h): 12 µM

Compound: CCOC(=O)C(C)(C)CCCCOc1ccc(OCCCCCn2cccn2)cc1 [Example 16]
- inhibition in vivo at 100 mg/kg ([2]; 100 mg/kg): 42.2%
- IC50 ([1]; Mus musculus, 72 h): 8.2 µM

Compound: CC(C)(CCCCOc1ccc(OCCCCCSc2nc3cccnc3[nH]2)cc1)C(N)=O [Example 44]
- inhibition in vivo at 100 mg/kg ([2]; 100 mg/kg): 46.1%
- IC50 ([1]; Mus musculus, 72 h): 3.7 µM

Compound: CNC(=O)C(C)(C)CCCCOc1ccc(OCCCCCn2ccnc2)cc1 [Example 49, 6-[p-[5-(1-imidazolyl)pentyloxy]phenoxy]-2,2-dimethylhexanoic acid methylamide]
- IC50 ([1]; Mus musculus, 72 h): 5.5 µM

Compound: CCOC(=O)C(C)(C)CCCCOc1ccc(OCCCCCSc2nccc(O)n2)cc1 [Example 28]
- IC50 ([1]; Mus musculus, 72 h): 18.9 µM

Compound: NC(=O)CCCCCOc1ccc(OCCCCCn2ccnc2)cc1 [Example 56]
- inhibition in vivo at 100 mg/kg ([2]; 100 mg/kg): 30.2%
- IC50 ([1]; Mus musculus, 72 h): 13.8 µM

Compound: CCOC(=O)C(C)(C)CCCCSc1nnc(SCCCCCn2ccnc2)s1 [Example 42, ethyl 6-[2-[5-(1-imidazolyl)pentylthio)-1,3,4-thiadiazol-5-ylthio]-2,2-dimethylhexanoate]
- inhibition in vivo at 50 mg/kg ([2]; 50 mg/kg): 53.1%
- IC50 ([1]; Mus musculus, 72 h): 4.4 µM

Compound: CC(C)(CCCCOc1ccc(OCCCCCSc2ccncc2)cc1)C(N)=O [Example 31]
- inhibition in vivo at 100 mg/kg ([2]; 100 mg/kg): 48.9%
- IC50 ([1]; Mus musculus, 72 h): 2.6 µM

Compound: CC(C)(CCCCOc1ccc(OCCCCCn2ccnc2)cc1)C(=O)OCc1ccccc1 [Example 5, benzyl 6-[p-[5-(1-imidazolyl)pentyloxy]phenoxy]-2,2-dimethylhexanoate]
- inhibition in vivo at 100 mg/kg ([2]; 100 mg/kg): 39.3%
- IC50 ([1]; Mus musculus, 72 h): 6.3 µM

Compound: CC(C)(CCCCOc1ccc(OCCCCCn2cccn2)cc1)C(N)=O [Example 4]
- inhibition in vivo at 100 mg/kg ([2]; 100 mg/kg): 50.1%
- IC50 ([1]; Mus musculus, 72 h): 4.9 µM

Compound: CC(C)(CCCCOc1ccc(OCCCCCn2ccnc2)cc1)C(=O)NCc1ccccc1 [Example 3]
- inhibition in vivo at 50 mg/kg ([2]; 50 mg/kg): 58.5%
- IC50 ([1]; Mus musculus, 72 h): 4 µM

Compound: CCOC(=O)C(C)(C)CCCCOc1ccc(OCCCCCSc2nnnn2C)cc1 [Example 22, ethyl 6-[p-[5-(1-methyl-5-tetrazolylmercapto)pentyloxy]phenoxy]-2,2-dimethylhexanoate]
- inhibition in vivo at 100 mg/kg ([2]; 100 mg/kg): 40.2%
- IC50 ([1]; Mus musculus, 72 h): 6.7 µM

Compound: CCCCCCCCCCNC(=O)C(C)(C)CCCCOc1ccc(OCCCCCn2ccnc2)cc1 [Example 51]
- inhibition in vivo at 50 mg/kg ([2]; 50 mg/kg): 42.5%
- IC50 ([1]; Mus musculus, 72 h): 0.6 µM

Compound: COc1ccc(OCCCCCn2ccnc2)cc1 [Example 11, 1-[5-(1-imidazolyl)pentyloxy]-4-methoxybenzene]
- inhibition in vivo at 100 mg/kg ([2]; 100 mg/kg): 33.4%
- IC50 ([1]; Mus musculus, 72 h): 40 µM

Compound: 6[p-[5-(1-imidazolyl)pentyloxy]phenoxy]-2,2-dimethylhexaneheptylamide [Example 61]
- Growth Inhibition Rate ([2]; 100 mg/kg): 38.9%
- IC50 [1]: 5.9 µM

Compound: CCOC(=O)C(C)(C)CCCCOc1cccc(OCCCCCn2ccnc2)c1 [Example 37]
- IC50 ([1]; Mus musculus, 72 h): 4.6 µM

Compound: CCOC(=O)C(C)(C)CCCCOc1ccc(OCCCCCOCc2cccnc2)cc1 [Example 13, ethyl 6-[p-[5-(3-pyridylmethyloxy)pentyloxy]phenoxy]-2,2-dimethylhexanoate]
- IC50 ([1]; Mus musculus, 72 h): 7.6 µM

Compound: CCOC(=O)C(C)(C)CCCCOc1ccc(OCCCCCn2cnc3cncnc32)cc1 [Example 39]
- IC50 ([1]; Mus musculus, 72 h): 4.1 µM

Reference: patent US4891432A, “Phenoxy imidazole compound” (Yamanouchi Pharmaceutical Co., Ltd., priority 1986, dated 1990)
